Data on 94 compounds can be found in PubChem BioAssay AID602464 (Sanford-Burnham Center for Chemical Genomics, 2012).

As usually defined, the IC50 is the point on the concentration scale where inhibition reaches its midpoint.

Activity calls are given as the source filed them. Cut-off read from the data, not from the text of the source: active = IC50 below about 20 µM; inactive = the rest.

In this test the test system is Gli-responsive luciferase reporter cells, SUFU pathway antagonism. Description: Gli-SUFU pathway antagonists, dose response, cell-based, luciferase luminescence, uHTS hits (AID 602464).

Turning to `O=C(C[C@@H]1C/C=C\C[C@H](NC(=O)OCC2c3ccccc3-c3ccccc32)C(=O)OC[C@H]2CCCN2C1=O)N[C@H](CO)Cc1ccccc1`, the IC50 was 6.71 µM.

In the case of `NC(=O)c1ccccc1OCC(=O)N1CCC(Cc2ccccc2)CC1`, the IC50 was 5.61 µM.

`CCC(C)CCN1C(N(C)C)=NC[C@@H]1CC(C)C` (some centres undefined): the IC50 is 7.98 µM.

For `O=C(c1cc2nc(-c3ccc(F)cc3)cc(C(F)(F)F)n2n1)N1CCCCC1c1cccnc1` (centres undefined), the IC50 was > 20 µM (inactive).

For `Cc1ccc(NC(=O)/C=C/c2ccco2)cc1S(=O)(=O)N1CCCCCC1`, the IC50 is 2.12 µM.

`COc1ccc(NS(=O)(=O)c2ccc(N3CCOCC3)c(N)c2)cc1`: the IC50 is 5.16 µM.

`O=C(N[C@@H]1C/C=C\C[C@@H](CC(=O)N(CCO)Cc2ccccc2)C(=O)NCCOC1=O)OCC1c2ccccc2-c2ccccc21`: the IC50 is 12.7 µM.

With `Cc1nc2ccccc2c2c1CC(C(C)(Cl)Br)O2` (centres undefined), the IC50 is 5.82 µM.

As to `CNc1ccccc1C(C)(C)c1cc(-c2cccc(Br)c2)no1`, the IC50 was 2.02 µM.

As to `Cc1cc(/C=N/n2cnnc2)c(C)n1-c1ccc(OCc2ccccc2F)cc1`, the IC50 was 4.28 µM.

With `O=C(N[C@@H]1C/C=C\C[C@H](CC(=O)N(CCO)Cc2ccccc2)C(=O)NC[C@@H](c2ccccc2)OC1=O)OCC1c2ccccc2-c2ccccc21`, the IC50 is 6.27 µM.

Take `CC(C)C(=O)NC(=S)/C=C1/N(C)c2ccccc2C1(C)C`: the IC50 was 4.76 µM.

As to `COc1ccc(NC(=S)N2CCC(Cc3ccccc3)CC2)cc1`, the IC50 was 16.6 µM.

Turning to `Brc1ccc(-c2c[n+]3c(n2-c2ccccc2)SCC3)cc1`, the half-inhibitory concentration (IC50) was 6.98 µM.

As for `Clc1ccc(-c2c[n+](Cc3ccc(Cl)cc3Cl)c3n2CCCCC3)cc1`, the IC50 is 5.31 µM.

Regarding `CCC(CC)CN1C(N(C)C)=NC[C@@H]1CC(C)C`, the IC50 was 8.27 µM.

On to `Brc1ccc(-c2csc(N3CCCCCC3)n2)cc1`, for which the IC50 was 1.02 µM.

Regarding `CCc1ccc(CN(C)C(=O)c2cc(COc3cccc4cnccc34)on2)cc1`, the IC50 is 5.85 µM.

Consider `COC(=O)c1cc(S(=O)(=O)N2CCC(c3cc(OC)ccc3OC)C2)c[nH]1` (centres undefined), for which the IC50 is 9.96 µM.

In the case of `CCCCN(C(C)=O)c1ccc2c(c1)C1CC2CCN1C(=O)OCc1ccccc1` (centres undefined), the IC50 was 6.13 µM.

Consider `O=C(Nc1cc(N2CCCCC2)ncn1)c1ccccc1`, for which the IC50 was 0.294 µM.

As for `Cc1nc2sccn2c1-c1csc(NCc2ccccc2)n1`, the IC50 is 9.83 µM.

As to `CC(=O)c1cn(Cc2ccccc2F)c2ccccc12`, the concentration for half-maximal inhibition (IC50) was 8.82 µM.

`O=c1c2ccccc2sc2c(CO)ccc(NCCN3CCCCC3)c12`: the IC50 was > 20 µM (inactive).

With `COc1cc(NS(=O)(=O)c2ccc(C)cc2C)cc(OC)c1OC`, the IC50 is 6.71 µM.

As to `C(#Cc1ccccc1)C[N+]1(CC#Cc2ccccc2)CCCC1`, the IC50 was 5.3 µM.

Take `c1ccc(-c2c[n+]3c(n2-c2ccccc2)CCC3)cc1`: the IC50 is > 20 µM (inactive).

For the compound `O=C(Cn1cnc2ccccc21)Nc1cccc(S(=O)(=O)N2CCCC2)c1`, the concentration for half-maximal inhibition (IC50) is 9.03 µM.

With `CCn1c(/C=C/Nc2ccccc2)[n+](CC)c2ccc(Cl)cc21`, the IC50 is 18.1 µM.

For the compound `CNc1nc(NCc2ccccc2)c2ccccc2n1`, the IC50 was 20 µM.

With `Cc1ccc(S(=O)(=O)N2CCN(C(=O)c3ccc(S(=O)(=O)N4CCCC4)cc3)CC2)cc1`, the IC50 is > 20 µM (inactive).

`O=C(c1ccc(Cl)cc1)N1CCN(c2ccnc3cc(Cl)ccc23)CC1`: the IC50 is 3.01 µM.

Regarding `Clc1ccc(-c2cn(-c3ccc(Cl)cc3)c3[n+]2CCCCC3)cc1`, the IC50 is 6.44 µM.

As to `COc1ccc(C2=[N+](C)CCn3cccc32)c(OC)c1`, the IC50 is 10.2 µM.

In the case of `O=C(c1ccc(C(F)(F)F)cc1)C1CCCN(Cc2ccncc2)C1` (centres undefined), the IC50 was 5.26 µM.

On to `CCN1CCCC1CNc1ncnc2c1[nH]c1ccc(Cl)cc12` (centres undefined), for which the IC50 is > 20 µM (inactive).

Regarding `C/C(=N\NC(=O)C(=O)Nc1ccc(C)c(Cl)c1)c1ccncc1`, the IC50 was 1.51 µM.

Regarding `COc1ccc(Nc2nc(N3CCOCC3)nc(N3CCOCC3)n2)c(OC)c1`, the IC50 is > 20 µM (inactive).

Turning to `O=S(=O)(c1ccc2c(c1)nc(COc1ccc(Cl)cc1)n2CC1CCCO1)N1CCOCC1` (centres undefined), the IC50 was 3.85 µM.

`COc1ccc(CNc2ncnc3c2[nH]c2ccccc23)cc1`: the IC50 is 2.79 µM.

On to `COCCn1c(CN2CCC(Cc3ccccc3)CC2)nc2c1c(=O)n(C)c(=O)n2C`, for which the IC50 is 4.08 µM.

Take `C[N+]1=C(/C=C/Nc2ccccc2)C(C)(C)c2ccccc21`: the IC50 is 5.37 µM.

As to `CCCCCn1c(=N)n(CC(O)COc2ccccc2OC)c2ccccc21` (centres undefined), the IC50 is 8.43 µM.

Take `O=C(N[C@@H]1C/C=C\C[C@@H](CC(=O)N(CCO)Cc2ccccc2)C(=O)NC[C@H](c2ccccc2)OC1=O)OCC1c2ccccc2-c2ccccc21`: the IC50 was 8.39 µM.

`Cc1nc2ccccc2n1CC(=O)NC(C)C1CC2CCC1C2` (centres undefined): the IC50 was 7.93 µM.

As for `CC(C)(C)OC(=O)NCCCCCc1cn(CC(=O)NCCCCCCCCCCC(=O)N2CCN(C(=O)OC(C)(C)C)CC2)nn1`, the IC50 is 2.93 µM.

As for `CCCCc1ccc(NC(=O)C(=O)NCCN2CCN(Cc3ccc([N+](=O)[O-])cc3)CC2)cc1`, the IC50 is 8.33 µM.

`CCC(C)NS(=O)(=O)c1ccc(S(=O)(=O)N2CCCC3(CCCCC3)C2)cc1` (centres undefined): the IC50 was > 20 µM (inactive).

On to `CCCCOc1ncnc2c1[nH]c1ccc(F)cc12`, for which the IC50 is 4.85 µM.

As to `C/C(=N\Nc1ccc(Cl)nn1)c1ccccc1O`, the IC50 is > 20 µM (inactive).

For `CCOc1ccc(-c2nc(CSCC(=O)NC3CC3)c(C)o2)cc1`, the IC50 is 0.377 µM.

Consider `CC(=O)c1ccc(-n2cc(-c3ccc(C(C)(C)C)cc3)[n+]3c2SCCC3)cc1`, for which the IC50 was 9.87 µM.

Consider `CC[N+]1=C(C)C(C)(C)c2cc(C)ccc21`, for which the IC50 is 2.06 µM.

With `COc1ccc(CN(C)Cc2nc(Cc3cccc(F)c3)no2)c2cccnc12`, the IC50 was 5.96 µM.

As to `COc1ccc(NS(=O)(=O)c2ccc(N3CCCCC3)c(N)c2)cc1`, the IC50 is 5.14 µM.

`O=C(Nc1ccccc1)C1=C[C@H](C2CCCCC2)C[C@H](OCCCCO)O1`: the IC50 is 0.666 µM.

As to `Cc1ccc(C)c(-c2csc(NC(=O)C3=COCCO3)n2)c1`, the IC50 is 6.31 µM.

With `CC(C)Cc1ccc(C(C)C(=O)Nc2cccnc2)cc1` (centres undefined), the IC50 was 13 µM.

Turning to `CC(C)(C)OC(=O)N1CCC(c2cc(-c3cccs3)n[nH]2)CC1`, the IC50 is > 20 µM (inactive).

In the case of `COc1ccc(NS(=O)(=O)c2ccc(NC(C)=O)cc2)cc1OC`, the IC50 is 7.92 µM.

With `Cc1cc(/C=C2/SC(=S)N(c3ccc([N+](=O)[O-])cc3)C2=O)c(C)n1-c1cccnc1`, the IC50 was 0.663 µM.

`c1ccc(-c2cn(-c3ccccc3)c3[n+]2CCS3)cc1`: the IC50 was 6.57 µM.

Turning to `O=C(C[C@H]1C/C=C\C[C@@H](NC(=O)OCC2c3ccccc3-c3ccccc32)C(=O)O[C@@H](c2ccccc2)CNC1=O)N[C@H](CO)Cc1ccccc1`, the IC50 is 7.67 µM.

Regarding `CCc1cc(C(=O)NC2CCCN(Cc3ccccc3F)C2)n(C)n1` (centres undefined), the IC50 is 13.1 µM.

For the compound `CCN(CC)S(=O)(=O)c1ccc(C)c(NC(=S)N2CCN(Cc3ccc4c(c3)OCO4)CC2)c1`, the IC50 is 12.2 µM.

On to `Cc1ccc(C(=O)N2CCN3C(=O)c4ccccc4C23c2ccc(Cl)cc2)cc1` (centres undefined), for which the IC50 was 4.95 µM.

In the case of `CC(=O)Nc1cccc(OCC(=O)/C=C2\N(C)c3ccccc3C2(C)C)c1`, the IC50 was 4.73 µM.

For the compound `CCCCCCC[N+](CC)(CC)CCCCc1ccc(Cl)cc1`, the IC50 is 5.6 µM.

With `CC(=O)c1ccc(N2CCN(c3ccc(C(F)(F)F)cn3)CC2)cc1`, the IC50 is 8.99 µM.

For `COc1ccc(CCNc2ncnc3c2oc2ccccc23)cc1OC`, the IC50 was 2.72 µM.

On to `CCOC(=O)c1c(NC(=O)C(=O)N/N=C/c2ccccc2O)sc2c1CCCCC2`, for which the IC50 was 4.39 µM.

On to `O=C(Cc1ccc(Cl)cc1Cl)Nc1ccncc1`, for which the IC50 is 10.3 µM.

As for `C[n+]1c2n(c3ccccc31)N=C(c1ccccc1)CS2`, the IC50 was 6.49 µM.

Regarding `CC(C)(C)c1ccc(CN2C3=NCCCN3c3ccccc32)cc1`, the half-maximal inhibitory concentration (IC50) was 3.83 µM.

`O=C(c1cc2sccc2n1Cc1ccccc1)N1CCN(c2nc3ccccc3s2)CC1`: the IC50 is 4.67 µM.

On to `COc1ccc(-n2cc(-c3ccc(OC(F)F)cc3)[n+]3c2CCCCC3)cc1`, for which the IC50 is 2.29 µM.

On to `CCOc1ccc(NS(=O)(=O)c2cccc(C(=O)N3CCN(C/C=C/c4ccccc4)CC3)c2)cc1`, for which the IC50 was > 20 µM (inactive).

As to `COc1nnc(-c2ccc(N3CCCCC3)c(N)c2)c2ccccc12`, the IC50 is 9.11 µM.

For the compound `CC(C)(C)C1CCC(OC(=O)C[N+]2(C)CCCCC2)CC1` (centres undefined), the IC50 is > 20 µM (inactive).

In the case of `COc1ccc(CN2CCC(C(=O)Nc3ccc(Oc4cccnc4)cc3)CC2)c(C)c1C`, the IC50 is 12.6 µM.

`CCN(CC(=O)Nc1c(F)cccc1F)C(=O)c1cc(S(=O)(=O)N(CC)CC)ccc1N1CCCCC1`: the IC50 is 12.2 µM.

On to `NC(=O)c1c(-c2ccc(Cl)cc2Cl)csc1NC(=O)Cc1ccccc1`, for which the 50% inhibitory concentration (IC50) was 7.97 µM.

In the case of `O=C(COC(=O)c1ccc2[nH]c3c(c2c1)CCCC3)Nc1ccccc1Cl`, the IC50 was > 20 µM (inactive).

On to `CC[N+](CC)(CC#Cc1ccccc1)CC#Cc1ccccc1`, for which the IC50 was 4.37 µM.

As to `Cc1ccc(C)c(N2CC(O)(c3cccs3)[N+]3=C2CCCC3)c1` (centres undefined), the IC50 was 10.4 µM.

With `COc1ccc(NS(=O)(=O)c2ccc(N3CCN(CCO)CC3)c([N+](=O)[O-])c2)cc1`, the IC50 was 8.77 µM.

Turning to `Cc1nnsc1C(=O)Nc1ccc(S(=O)(=O)N2CCC(C)CC2)cc1`, the IC50 was > 20 µM (inactive).

As for `Cc1cccc(CCN2C(N(C)C)=NC[C@@H]2CC(C)C)c1`, the concentration for half-maximal inhibition (IC50) was 10.3 µM.

Turning to `Cc1ccc(Cl)cc1N1CCN(C(=O)CSc2nnc3n2C(C)(C)Cc2ccccc2-3)CC1`, the IC50 is 7.5 µM.

On to `Nc1nc2ccccc2n1/N=C/c1ccc([N+](=O)[O-])s1`, for which the IC50 was 6.42 µM.

For the compound `Cc1sc2ncnc(N3CCN(S(=O)(=O)c4ccc(C(C)(C)C)cc4)CC3)c2c1C`, the IC50 was 5.43 µM.

As to `CCn1c(/C=C/Nc2ccccc2)[n+](CC)c2cc(Cl)c(Cl)cc21`, the IC50 was 7.87 µM.

For the compound `CC(=O)N1c2ccc(S(=O)(=O)N3CCC(C(=O)N4CCCCC4)CC3)cc2CC1C` (centres undefined), the IC50 is 16.9 µM.

`CCOc1ccc(-c2cc(C)[n+](CCO)c(-c3ccc(OCC)cc3)c2)cc1`: the IC50 is 14.8 µM.
